Measurements from ChEMBL document CHEMBL1201862, “PubChem BioAssay data set” (2004).
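How tested: cells in 96-well plates exposed to compound for 48 hours at five concentrations. GI50 is the concentration that inhibits growth by half.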 Activity calls are given as the source filed them. Cut-off read from the data, not from the text of the source: active = GI50 up to about 1.1 µM and inactive = higher.

How the values were obtained:
Experiment in all cases: NCI anticancer screen, dose series, 48 h
[1] = system: PC-3
[2] = system: OVCAR-4
[3] = system: HCT-116
[4] = system: SK-MEL-2
[5] = system: COLO 205
[6] = system: SK-MEL-28
[7] = system: A549
[8] = system: A498
[9] = system: UACC-62
[10] = system: 786-0
[11] = system: MOLT-4
[12] = system: IGROV-1
[13] = system: EKVX
[14] = system: UACC-257
[15] = system: HT-29
[16] = system: DU-145
[17] = system: SK-OV-3
[18] = system: SNB-75
[19] = system: OVCAR-3
[20] = system: HOP-62

Measured: GI50

CC1CCCC(CC(=O)O)(CC(=O)O)C1 (stereo not given)
inactive: [1] > 100 µM | [2] > 100 µM | [3] > 100 µM | [4] > 100 µM | [5] > 100 µM | [6] 7.55 µM | [7] > 100 µM | [8] > 100 µM | [9] > 100 µM | [10] > 100 µM | [11] 48.1 µM | [12] > 100 µM | [13] > 100 µM | [14] > 100 µM | [15] > 100 µM

S=C(Nc1ccc(Cl)cc1)SC1CCCCC1
inactive: [16] 40.9 µM | [17] 27.8 µM | [1] 35.7 µM | [2] 33.9 µM | [3] 25.6 µM | [4] 17.6 µM | [5] 30.5 µM | [6] 17.3 µM | [7] 19.2 µM | [9] 14 µM | [10] 36.6 µM | [18] 25.2 µM | [11] 29.2 µM | [12] 21.2 µM | [19] 21.4 µM | [13] 20.8 µM | [14] 25.9 µM | [20] 27.7 µM | [15] 20.8 µM

COC(=O)C1C(=O)N(CCc2c[nH]c3ccccc23)C[C@@H]2CCC(=O)C[C@H]12 (stereo not given in full)
inactive: [17] > 100 µM | [2] > 100 µM | [3] > 100 µM | [4] > 100 µM | [5] > 100 µM | [6] > 100 µM | [7] > 100 µM | [8] > 100 µM | [9] > 100 µM | [10] > 100 µM | [18] > 100 µM | [11] > 100 µM | [12] > 100 µM | [19] > 100 µM | [13] > 100 µM | [14] > 100 µM | [20] > 100 µM | [15] > 100 µM

O=C1CC(c2ccc(Cl)cc2)=Nc2ccccc2N1
inactive: [17] 32.7 µM | [2] 28.6 µM | [3] 28.6 µM | [4] > 100 µM | [5] > 100 µM | [6] > 100 µM | [7] > 100 µM | [8] 79.6 µM | [9] > 100 µM | [10] 36.1 µM | [18] 20.6 µM | [11] > 100 µM | [12] > 100 µM | [19] 84.9 µM | [13] 47.3 µM | [14] 80.7 µM | [20] 40.6 µM | [15] > 100 µM

CNC(=S)N/N=C(C)\C(=N/NC(=S)NC)c1ccccc1
inactive: [16] > 100 µM | [17] > 100 µM | [1] 30.9 µM | [3] 31.6 µM | [5] 55.5 µM | [7] 29.2 µM | [9] > 100 µM | [10] 50 µM | [18] 69.8 µM | [12] 27.8 µM | [19] 86.9 µM | [13] 38 µM | [14] > 100 µM | [20] > 100 µM

CCOC(=O)c1nnsc1NC(=O)Nc1ccc(Cl)cc1
inactive: [16] 56.5 µM | [1] 33 µM | [2] 21.1 µM | [3] 25.4 µM | [4] > 100 µM | [5] 67.3 µM | [6] > 100 µM | [7] 43 µM | [9] 71 µM | [10] 21.1 µM | [18] 21.1 µM | [11] > 100 µM | [12] 31 µM | [19] 43.2 µM | [13] 42 µM | [14] > 100 µM | [20] 68.9 µM | [15] 54.3 µM

O=C1CC(=O)c2c(Cl)sc(Cl)c21
inactive: [16] > 100 µM | [17] > 100 µM | [2] 29.2 µM | [3] > 100 µM | [4] > 100 µM | [5] > 100 µM | [6] 53.8 µM | [7] 87.1 µM | [8] > 100 µM | [9] 92.3 µM | [10] > 100 µM | [18] > 100 µM | [11] 34.1 µM | [12] > 100 µM | [19] 86.5 µM | [13] > 100 µM | [14] > 100 µM | [20] > 100 µM | [15] > 100 µM

COC(=O)/C(=N\NC(N)=O)C(C(=O)C(=O)Nc1ccccc1OC)c1nc2ccc([N+](=O)[O-])cc2nc1O (stereo not given)
inactive: [17] > 100 µM | [1] > 100 µM | [2] 53 µM | [3] > 100 µM | [4] > 100 µM | [6] > 100 µM | [7] > 100 µM | [8] > 100 µM | [9] > 100 µM | [10] > 100 µM | [18] > 100 µM | [11] > 10 µM | [12] 53.1 µM | [19] > 100 µM | [13] > 100 µM | [14] > 100 µM | [20] > 100 µM | [15] > 100 µM

N#CC(C(=O)CCC(=O)C(C#N)c1ccccc1)c1ccccc1 (stereo not given)
inactive: [17] > 100 µM | [2] > 100 µM | [3] > 100 µM | [4] > 100 µM | [5] > 100 µM | [6] > 100 µM | [7] > 100 µM | [8] > 100 µM | [9] > 100 µM | [10] > 100 µM | [18] > 100 µM | [11] > 100 µM | [12] > 100 µM | [19] > 100 µM | [13] > 100 µM | [14] > 100 µM | [20] > 100 µM | [15] > 100 µM

Cc1cccc(C)c1NC(=O)CCC(=O)NNc1nnc(C)n1N
inactive: [17] > 100 µM | [2] > 100 µM | [3] > 100 µM | [4] > 100 µM | [5] > 100 µM | [6] > 100 µM | [7] > 100 µM | [8] 53.3 µM | [9] > 100 µM | [10] > 100 µM | [18] > 100 µM | [11] > 100 µM | [12] > 100 µM | [19] > 100 µM | [13] > 100 µM | [14] > 100 µM | [20] > 100 µM | [15] > 100 µM

C=CC(=C)CCC(Br)C(C)(C)Cl (stereo not given)
inactive: [16] > 100 µM | [17] > 100 µM | [1] > 100 µM | [2] > 100 µM | [3] > 100 µM | [4] > 100 µM | [5] > 100 µM | [6] > 100 µM | [7] > 100 µM | [9] > 100 µM | [10] > 100 µM | [18] > 100 µM | [11] 85.1 µM | [12] > 100 µM | [19] > 100 µM | [13] > 100 µM | [14] > 100 µM | [20] > 100 µM | [15] > 100 µM

Cc1nn(C(=O)c2ccc(Cl)cc2)c2c1C(/C=C/c1ccccc1)SC(=N)N2 (stereo not given)
inactive: [16] > 10 µM | [17] > 10 µM | [1] > 10 µM | [2] > 10 µM | [3] > 10 µM | [4] > 10 µM | [5] > 10 µM | [6] > 10 µM | [7] > 10 µM | [9] > 10 µM | [10] > 10 µM | [18] > 10 µM | [11] > 10 µM | [12] > 10 µM | [19] > 10 µM | [13] > 10 µM | [14] > 10 µM | [20] > 10 µM | [15] > 10 µM

NC(=O)c1c2c(cc3c(=O)c4ccccc4[nH]c13)CCCC2
inactive: [17] > 100 µM | [2] > 100 µM | [3] > 100 µM | [4] > 65.9 µM | [5] > 100 µM | [6] > 100 µM | [7] > 100 µM | [8] > 100 µM | [9] > 100 µM | [10] > 69.3 µM | [18] 43.1 µM | [11] > 61.2 µM | [12] > 100 µM | [19] > 100 µM | [13] > 100 µM | [14] > 100 µM | [20] > 100 µM | [15] > 100 µM

COc1ccc(-c2cc(-c3ccc(C)cc3)n(C3OC(COC(C)=O)C(OC(C)=O)C(OC(C)=O)C3OC(C)=O)c(=S)c2C#N)cc1 (stereo not given)
inactive: [16] > 100 µM | [17] > 100 µM | [1] > 100 µM | [2] 29.2 µM | [3] > 100 µM | [5] > 100 µM | [6] > 100 µM | [7] > 100 µM | [9] > 100 µM | [10] > 100 µM | [18] 27 µM | [11] > 100 µM | [12] > 100 µM | [19] > 100 µM | [13] > 100 µM | [20] 37.1 µM | [15] > 100 µM

COC(=O)C1=C(C)C(=O)[C@]23C(CCCC[C@H]12)C(=O)[C@H](C(=O)OC)C3C (stereo not given in full)
inactive: [16] > 100 µM | [17] > 100 µM | [1] > 100 µM | [2] > 100 µM | [3] > 100 µM | [5] > 100 µM | [6] > 100 µM | [7] > 100 µM | [9] > 100 µM | [10] > 100 µM | [11] > 100 µM | [12] > 100 µM | [19] > 100 µM | [13] > 100 µM | [14] > 100 µM | [20] > 100 µM | [15] > 100 µM
